The data set deals with individuals showing problems related to venous insufficiency. Kind of data set: Administration of oleuropein to patients suffering from venous insufficiency (general statements). The note with it: compared with other drugs known for peripheral vascular disease symptoms.

Side effects data for one molecule are collected here from patent US20080227728A1, “Therapeutic Agent for the Treatment of a Condition Associated with Peripheral Vascular Disease” (LABORATORIOS BELMAC, S.A., priority 2005, published 2008).

In the case of `C/C=C1/[C@H](O[C@@H]2O[C@H](CO)[C@@H](O)[C@H](O)[C@H]2O)OC=C(C(=O)OC)[C@H]1CC(=O)OCCc1ccc(O)c(O)c1` [oleuropein], the side effects result was “do not show significant side effects”.
